Laboratory results from US7713706B2, “Method of fixing low-molecular compound to solid-phase support” (RIKEN, priority 2003, dated 2010).

Columns and labels:
[1] = tested on: anti-digoxin monoclonal antibody clone DI-22-FITC conjugate; test: Detection of low molecule-protein bonding on low molecule-fixed slide (fluorescent slide scanner, 488 nm); format: binding; details: light of 488 nm; 162 μg/mL anti-digoxin monoclonal antibody clone DI-22-FITC conjugate; room temperature 1 hour; compound fixed on photophilic atomic group-introduced slide
Method: (§1) On the photophilic atomic group-introduced slide, 0.2 μL of each of solutions of low-molecular compounds (biotin, rhodamine B, digoxin) in DMSO, which had been prepared in concentrations of 100, 10, 1, 0.1 and 0.01 mM, was spotted. The slide was dried in an incubator at 35° C. for 3 hours and further dried with a vacuum pump for 20 hours. […] The slide was then washed while shaking by immersing in ethanol, DMF, THF, ethanol and deionized water in this order (for 1 hour each). Thus, a slide on which low molecules were fixed was produced.
(§2) Onto the low molecule-fixed slide, a protein solution (162 μg/mL anti-digoxin monoclonal antibody clone DI-22-FITC conjugate, 3.7 μg/mL streptavidin-Alexa Fluor 633 conjugate, 1% (w/v) skimmed milk, 77 mM NaCl, 0.05% (w/v) TWEEN™ 20 (polysorbate 20), 50 mM Tris-HCl, pH 7.5) was added at a rate of […], and then treated at room temperature for 1 hour. The slide was washed while shaking three times with a wash buffer (77 mM NaCl, 0.05% (w/v) TWEEN™ 20 (polysorbate 20), 50 mM Tris-HCl, pH 7.5), rinsed with deionized water, and dehydrated in a dehydration centrifuge (400×g) for 1 minute, The slide was exited with light of 488, 532 and 635 nm, respectively, and the emitted fluorescent light was observed on a fluorescent slide scanner. […]

[2] = target: streptavidin-Alexa Fluor 633 conjugate (Streptomyces avidinii, UniProt P22629); test: Detection of low molecule-protein bonding on low molecule-fixed slide (fluorescent slide scanner, 635 nm); format: binding; details: light of 635 nm; 3.7 μg/mL streptavidin-Alexa Fluor 633 conjugate; room temperature 1 hour; compound fixed on photophilic atomic group-introduced slide
Method: as §1, §2

Chain of streptavidin-Alexa Fluor 633 conjugate (P22629 25-183): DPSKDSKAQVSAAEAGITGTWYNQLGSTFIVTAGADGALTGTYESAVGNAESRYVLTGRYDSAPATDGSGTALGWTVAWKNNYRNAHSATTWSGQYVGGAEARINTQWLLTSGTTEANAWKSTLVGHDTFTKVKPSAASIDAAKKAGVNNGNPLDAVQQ

| SMILES | binding of fixed low-molecular compound to protein (fluorescence detected at spotted areas) [1] | binding of fixed low-molecular compound to protein (fluorescence detected at spotted areas) [2] |
| --- | --- | --- |
| C[C@H]1O[C@@H](O[C@H]2C(O)C[C@H](OC3CC[C@@]4(C)[C@H](CC[C@@H]5[C@@H]4C[C@@H](O)[C@]4(C)[C@@H](C6=CC(=O)OC6)CC[C@]54O)C3)O[C@@H]2C)C[C@H](O)C1O[C@H]1C[C@H](O)[C@H](O)[C@@H](C)O1 (some centres unmarked) [digoxin] | bound to the protein | – |
| O=C(O)CCCC[C@@H]1SC[C@@H]2NC(=O)N[C@@H]21 [biotin] | – | bound to the protein |
